In article PMC11289882, “Site-directed allostery perturbation to probe the negative regulation of hypoxia inducible factor-1α” (RSC Chemical Biology, 2024):
Where two headings read alike, the source gives them in different places. Non-standard residues stand in square brackets, D forms with d. Residues, ends and D or L forms follow the SMILES beside them. β3hE = N[C@@H](CCC(=O)O)CC(=O)O; β3hL = CC(C)C[C@H](N)CC(=O)O; β3hD = NC(CC(=O)O)CC(=O)O

What was measured:
[1] = target: T1, p300_330–420 (TAZ1 domain) (Homo sapiens, UniProt Q09472); assay: ITC direct titration to p300; type: binding; conditions: 35 °C
T1 construct: from residues 330-420 (used for FA and ITC experiments); GST (N, cleaved yes); made in house; host or cells: E. coli BL21 pLysS (pGEX-4T-1)

[2] = target: T2, p300–Flu-HIF-1α (Homo sapiens, UniProt Q09472); assay: Fluorescence anisotropy competition against p300–Flu-HIF-1α; type: binding
T2 construct: from residues 330-420 (used for FA and ITC experiments); GST (N, cleaved yes); made in house; host or cells: p300: E. coli BL21 pLysS (pGEX-4T-1); tracer peptide: solid-phase synthesis

[3] = 5 µM p300_330–420 in cell, 60 µM ligand in syringe, 40 mM Na-phosphate pH 7.5, 100 mM NaCl, 1 mM DTT, global fit with ternary intermediate model, 68% confidence intervals in brackets, read-out: Direct binding to p300, K d
[4] = 50 nM p300_330–420, 25 nM Flu-HIF-1α786–826 tracer, 40 mM Na-phosphate, 100 mM NaCl, 1 mM DTT, 0.01% Triton-X, pH 7.4, 10 min at 35 °C, fixed KD = 64 nM for tracer, three repeats, read-out: Kd,app FA competition against p300–Flu-HIF-1α

T1 sequence (Q09472 330-420): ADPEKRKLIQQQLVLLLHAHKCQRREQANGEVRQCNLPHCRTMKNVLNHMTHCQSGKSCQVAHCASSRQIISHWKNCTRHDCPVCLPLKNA
T2 sequence (Q09472 330-420): as above

SMILES	Kd [1, 3] [nM]	Kd [2, 4] [nM]	Kd ([2]; determined by FA competition with HIF-1α776–826 as competitor (competitor KD 50 ± 8 nM from ITC), 50 nM p300, 25 nM tracer, 35 °C, read-out: KD of the fluorescent tracer for p300) [nM]	Kd ([1]; 5 µM protein in cell, 60 µM peptide in syringe, 40 mM Na-phosphate, 100 mM NaCl, 1 mM DTT pH 7.4, average of three independent measurements, read-out: KD of HIF-1α776-826 binding to p300) [nM]
CC[C@H](C)[C@H](NC(C)=O)C(=O)N[C@@H](CC(=O)O)C(=O)N[C@H](C(=O)N[C@@H](CC(=O)O)C(=O)N[C@@H](Cc1ccccc1)C(=O)N[C@H](C(=O)N[C@@H](CC(=O)O)C(=O)N[C@@H](CCC(=O)O)C(=O)N[C@@H](CCC(=O)O)C(=O)N[C@H](C(=O)N[C@@H](CC(C)C)C(=O)N[C@@H](CCSC)C(=O)N[C@@H](CO)C(=O)N[C@@H](CC(C)C)C(=O)N[C@H](C(=O)N[C@H](C(=O)N[C@@H](CCC(=O)O)C(=O)N[C@@H](CCSC)C(=O)NCC(=O)N[C@@H](CC(C)C)C(=O)N[C@@H](CC(=O)O)CC(=O)N[C@@H](CCCNC(=N)N)C(=O)N[C@H](C(=O)N[C@@H](CCCCN)C(=O)N[C@@H](CCC(=O)O)CC(=O)N[C@@H](CC(C)C)C(=O)N1CCC[C@H]1C(=O)N[C@@H](CCC(=O)O)CC(=O)N[C@@H](CC(C)C)C(=O)N[C@@H](Cc1c[nH]c2ccccc12)C(=O)N[C@@H](CC(C)C)C(=O)NCC(=O)N[C@@H](CCC(N)=O)C(=O)N[C@@H](CC(N)=O)C(=O)N[C@@H](CCC(=O)O)C(=O)N[C@@H](Cc1ccccc1)C(=O)N[C@@H](CC(=O)O)C(=O)N[C@@H](Cc1ccccc1)C(=O)N[C@@H](CCSC)C(N)=O)[C@@H](C)CC)[C@@H](C)CC)C(C)C)C(C)C)[C@@H](C)CC)[C@@H](C)O [3a] (Ac-IDTDFIDEEVLMSLVIEMGL[β3hD]RIK[β3hE]LP[β3hE]LWLGQNEFDFM-NH2)	675	> 600		
CC[C@H](C)[C@H](NC(C)=O)C(=O)N[C@@H](CC(=O)O)C(=O)N[C@H](C(=O)N[C@@H](CC(=O)O)C(=O)N[C@@H](Cc1ccccc1)C(=O)N[C@H](C(=O)N[C@@H](CC(=O)O)C(=O)N[C@@H](CCC(=O)O)C(=O)N[C@@H](CCC(=O)O)C(=O)N[C@H](C(=O)N[C@@H](CC(C)C)C(=O)N[C@@H](CCSC)C(=O)N[C@@H](CO)C(=O)N[C@@H](CC(C)C)C(=O)N[C@H](C(=O)N[C@H](C(=O)N[C@@H](CCC(=O)O)C(=O)N[C@@H](CCSC)C(=O)NCC(=O)N[C@@H](CC(C)C)C(=O)N[C@@H](CC(=O)O)CC(=O)N[C@@H](CCCNC(=N)N)C(=O)N[C@H](C(=O)N[C@@H](CCC(=O)O)CC(=O)N[C@@H](CC(C)C)C(=O)N1CCC[C@H]1C(=O)N[C@@H](CCC(=O)O)C(=O)N[C@@H](CC(C)C)C(=O)N[C@@H](Cc1c[nH]c2ccccc12)C(=O)N[C@H](CC(=O)NCC(=O)N[C@@H](CCC(N)=O)C(=O)N[C@@H](CC(N)=O)C(=O)N[C@@H](CCC(=O)O)C(=O)N[C@@H](Cc1ccccc1)C(=O)N[C@@H](CC(=O)O)C(=O)N[C@@H](Cc1ccccc1)C(=O)N[C@@H](CCSC)C(N)=O)CC(C)C)[C@@H](C)CC)[C@@H](C)CC)C(C)C)C(C)C)[C@@H](C)CC)[C@@H](C)O [3b] (Ac-IDTDFIDEEVLMSLVIEMGL[β3hD]RI[β3hE]LPELW[β3hL]GQNEFDFM-NH2)	98	112 ± 13		
CC[C@H](C)[C@H](NC(C)=O)C(=O)N[C@@H](CC(=O)O)C(=O)N[C@H](C(=O)N[C@@H](CC(=O)O)C(=O)N[C@@H](Cc1ccccc1)C(=O)N[C@H](C(=O)N[C@@H](CC(=O)O)C(=O)N[C@@H](CCC(=O)O)C(=O)N[C@@H](CCC(=O)O)C(=O)N[C@H](C(=O)N[C@@H](CC(C)C)C(=O)N[C@@H](CCSC)C(=O)N[C@@H](CO)C(=O)N[C@@H](CC(C)C)C(=O)N[C@H](C(=O)N[C@H](C(=O)N[C@@H](CCC(=O)O)C(=O)N[C@@H](CCSC)C(=O)NCC(=O)N[C@@H](CC(C)C)C(=O)N[C@@H](CC(=O)O)CC(=O)N[C@H](C(=O)N[C@@H](CCC(=O)O)CC(=O)N[C@@H](CC(C)C)C(=O)N1CCC[C@H]1C(=O)N[C@@H](CCC(=O)O)C(=O)N[C@@H](CC(C)C)C(=O)N[C@@H](Cc1c[nH]c2ccccc12)C(=O)N[C@@H](CC(C)C)C(=O)NCC(=O)N[C@@H](CCC(N)=O)C(=O)N[C@@H](CC(N)=O)C(=O)N[C@@H](CCC(=O)O)C(=O)N[C@@H](Cc1ccccc1)C(=O)N[C@@H](CC(=O)O)C(=O)N[C@@H](Cc1ccccc1)C(=O)N[C@@H](CCSC)C(N)=O)[C@@H](C)CC)[C@@H](C)CC)C(C)C)C(C)C)[C@@H](C)CC)[C@@H](C)O [3c] (Ac-IDTDFIDEEVLMSLVIEMGL[β3hD]I[β3hE]LPELWLGQNEFDFM-NH2)	29	76 ± 6		
CC[C@H](C)[C@H](NC(=O)[C@@H]1CCCN1C(=O)[C@H](C)NC(=O)[C@H](CC(N)=O)NC(=O)[C@@H](NC(=O)[C@H](CCC(=O)O)NC(=O)[C@H](CS)NC(=O)[C@H](CC(=O)O)NC(=O)[C@H](Cc1ccc(O)cc1)NC(=O)[C@H](CO)NC(=O)[C@@H](NC(=O)[C@H](CC(C)C)NC(=O)[C@H](CCC(N)=O)NC(=O)[C@@H]1CCCN1C(=O)[C@H](CC(C)C)NC(=O)CNC(=O)[C@H](CO)NC(=O)[C@H](CCC(=O)O)NC(=O)[C@H](CC(=O)O)NC(=O)[C@H](CCSC)NC(=O)[C@H](CO)NC(=O)CCCCCNC(=O)c1ccc2c(c1)C(=O)OC21c2ccc(O)cc2Oc2cc(O)ccc21)[C@@H](C)O)C(C)C)C(=O)N[C@@H](CCC(N)=O)C(=O)NCC(=O)N[C@@H](CO)C(=O)N[C@@H](CCCNC(=N)N)C(=O)N[C@@H](CC(N)=O)C(=O)N[C@@H](CC(C)C)C(=O)N[C@@H](CC(C)C)C(=O)N[C@@H](CCC(N)=O)C(=O)NCC(=O)N[C@@H](CCC(=O)O)C(=O)N[C@@H](CCC(=O)O)C(=O)N[C@@H](CC(C)C)C(=O)N[C@@H](CC(C)C)C(=O)N[C@@H](CCCNC(=N)N)C(=O)N[C@@H](C)C(=O)N[C@@H](CC(C)C)C(=O)N[C@@H](CC(=O)O)C(=O)N[C@@H](CCC(N)=O)C(=O)N[C@H](C(=O)N[C@@H](CC(N)=O)C(N)=O)C(C)C [Flu-HIF-1α]			64	
CC[C@H](C)[C@H](NC(=O)[C@@H]1CCCN1C(=O)[C@H](C)NC(=O)[C@H](CC(N)=O)NC(=O)[C@@H](NC(=O)[C@H](CCC(=O)O)NC(=O)[C@H](CS)NC(=O)[C@H](CC(=O)O)NC(=O)[C@H](Cc1ccc(O)cc1)NC(=O)[C@H](CO)NC(=O)[C@@H](NC(=O)[C@H](CC(C)C)NC(=O)[C@H](CCC(N)=O)NC(=O)[C@@H]1CCCN1C(=O)[C@H](CC(C)C)NC(=O)CNC(=O)[C@H](CO)NC(=O)[C@H](CCC(=O)O)NC(=O)[C@H](CC(=O)O)NC(=O)[C@H](CCSC)NC(=O)[C@H](CO)NC(=O)[C@H](CCC(N)=O)NC(=O)CNC(=O)[C@H](CC(C)C)NC(=O)[C@H](CC(C)C)NC(=O)[C@H](CCCNC(=N)N)NC(=O)[C@H](CS)NC(=O)[C@H](C)NC(=O)[C@H](CC(C)C)NC(=O)[C@H](CC(=O)O)NC(=O)[C@H](CO)NC(C)=O)[C@@H](C)O)C(C)C)C(=O)N[C@@H](CCC(N)=O)C(=O)NCC(=O)N[C@@H](CO)C(=O)N[C@@H](CCCNC(=N)N)C(=O)N[C@@H](CC(N)=O)C(=O)N[C@@H](CC(C)C)C(=O)N[C@@H](CC(C)C)C(=O)N[C@@H](CCC(N)=O)C(=O)NCC(=O)N[C@@H](CCC(=O)O)C(=O)N[C@@H](CCC(=O)O)C(=O)N[C@@H](CC(C)C)C(=O)N[C@@H](CC(C)C)C(=O)N[C@@H](CCCNC(=N)N)C(=O)N[C@@H](C)C(=O)N[C@@H](CC(C)C)C(=O)N[C@@H](CC(=O)O)C(=O)N[C@@H](CCC(N)=O)C(=O)N[C@H](C(=O)N[C@@H](CC(N)=O)C(N)=O)C(C)C [HIF-1α776–826]		57 ± 4		50 ± 8
CC[C@H](C)[C@H](NC(C)=O)C(=O)N[C@@H](CC(=O)O)CC(=O)N[C@H](C(=O)N[C@@H](CC(=O)O)CC(=O)N[C@@H](Cc1ccccc1)C(=O)N[C@H](C(=O)N[C@@H](CC(=O)O)CC(=O)N[C@@H](CCC(=O)O)C(=O)N[C@@H](CCC(=O)O)C(=O)N[C@H](C(=O)N[C@@H](CC(C)C)C(=O)N[C@@H](CCSC)C(=O)N[C@@H](CO)C(=O)N[C@@H](CC(C)C)C(=O)N[C@H](C(=O)N[C@H](C(=O)N[C@@H](CCC(=O)O)C(=O)N[C@@H](CCSC)C(=O)NCC(=O)N[C@@H](CC(C)C)C(=O)N[C@@H](CC(=O)O)C(=O)N[C@@H](CCCNC(=N)N)C(=O)N[C@H](C(=O)N[C@@H](CCCCN)C(=O)N[C@@H](CCC(=O)O)C(=O)N[C@@H](CC(C)C)C(=O)N1CCC[C@H]1C(=O)N[C@@H](CCC(=O)O)C(=O)N[C@@H](CC(C)C)C(=O)N[C@@H](Cc1c[nH]c2ccccc12)C(=O)N[C@@H](CC(C)C)C(=O)NCC(=O)N[C@@H](CCC(N)=O)C(=O)N[C@@H](CC(N)=O)C(=O)N[C@@H](CCC(=O)O)C(=O)N[C@@H](Cc1ccccc1)C(=O)N[C@@H](CC(=O)O)C(=O)N[C@@H](Cc1ccccc1)C(=O)N[C@@H](CCSC)C(N)=O)[C@@H](C)CC)[C@@H](C)CC)C(C)C)C(C)C)[C@@H](C)CC)[C@@H](C)O [compound 1] (Ac-I[β3hD]T[β3hD]FI[β3hD]EEVLMSLVIEMGLDRIKELPELWLGQNEFDFM-NH2)	19	9.6 ± 2.4		
